From patent US12186283B2, “Bismuth-thiol compositions and methods of use” (Microbion Corporation, priority 2018, dated 2025)
In brackets after ≈: the same amount, converted by molar mass.

Assays:
S. aureus ATCC 29213 [1] = assay: Broth microdilution MIC, ATCC QC organism (Example 12); format: cell-based, Staphylococcus aureus; conditions: S. aureus ATCC 29213, QC organism
Method: The in vitro activity of BisEDT and two additional bismuth-thiol investigational agents (MB-2B and MB-6) was determined for isolates of Escherichia coli, Klebsiella pneumoniae, Pseudomonas aeruginosa and Acinetobacter baumannii characterized for extended-spectrum β-lactamases (ESBL) and/or carbapenem resistance. In addition, vancomycin-intermediate Staphylococcus aureus (VISA) were evaluated. The majority of the isolates tested in the current study were multidrug-resistant (MDR) as defined by resistance to at least three different antibiotic classes. Susceptibility to the investigational compounds and relevant comparators was determined by broth microdilution conducted in accordance with guidelines from the Clinical and Laboratory Standards Institute (CLSI; 2,3).

[2] = tested on: vancomycin-intermediate Staphylococcus aureus (VISA); assay: Broth microdilution MIC (Example 12)
S. aureus ATCC 29213 [3] = conditions: S. aureus ATCC 29213, QC organism; cited from earlier work
[4] = tested on: S. pneumoniae (pneumococci); conditions: S. pneumoniae MMX 6837 (ATCC 49619); cited from earlier work
[5] = tested on: S. pneumoniae (pneumococci); assay: Broth microdilution MIC (Example 11); format: cell-based, Streptococcus pneumoniae
[6] = tested on: beta-hemolytic streptococci (S. pyogenes, S. agalactiae); assay: Broth microdilution MIC (Example 11); format: cell-based, Streptococcus pyogenes, Streptococcus agalactiae
[7] = Staphylococcus aureus NRS 1 (hVISA)
[8] = Staphylococcus aureus NRS 24 (hVISA)

CC(=O)NC[C@H]1CN(c2ccc(N3CCOCC3)c(F)c2)C(=O)O1 [LZD]
MIC (S. aureus ATCC 29213 [1]): 4 µg/mL (≈ 11.9 µM)
MIC [2, 7]: 1 µg/mL (≈ 2.96 µM)
MIC ([2]; Staphylococcus aureus NRS 2): 4 µg/mL (≈ 11.9 µM)
MIC ([2]; Staphylococcus aureus NRS 3): 1 µg/mL (≈ 2.96 µM)
MIC ([2]; Staphylococcus aureus NRS 4): 1 µg/mL (≈ 2.96 µM)
MIC ([2]; Staphylococcus aureus NRS 13): 2 µg/mL (≈ 5.93 µM)
MIC ([2]; Staphylococcus aureus NRS 18): 1 µg/mL (≈ 2.96 µM)
MIC ([2]; Staphylococcus aureus NRS 22): 1 µg/mL (≈ 2.96 µM)
MIC [2, 8]: 2 µg/mL (≈ 5.93 µM)
MIC ([2]; Staphylococcus aureus NRS 27): 2 µg/mL (≈ 5.93 µM)
MIC, QC range (S. aureus ATCC 29213 [3]): (1-4) μg/mL

CN[C@H](CC(C)C)C(=O)N[C@H]1C(=O)N[C@@H](CC(N)=O)C(=O)N[C@H]2C(=O)N[C@H]3C(=O)N[C@H](C(=O)N[C@H](C(=O)O)c4cc(O)cc(O)c4-c4cc3ccc4O)[C@H](O)c3ccc(c(Cl)c3)Oc3cc2cc(c3O[C@@H]2O[C@H](CO)[C@@H](O)[C@H](O)[C@H]2O[C@H]2C[C@](C)(N)[C@H](O)[C@H](C)O2)Oc2ccc(cc2Cl)[C@H]1O [VAN]
MIC (S. aureus ATCC 29213 [1]): 0.5 µg/mL (≈ 0.345 µM)
MIC [2, 7]: 4 µg/mL (≈ 2.76 µM)
MIC ([2]; Staphylococcus aureus NRS 2): 0.5 µg/mL (≈ 0.345 µM)
MIC ([2]; Staphylococcus aureus NRS 3): 8 µg/mL (≈ 5.52 µM)
MIC ([2]; Staphylococcus aureus NRS 4): 4 µg/mL (≈ 2.76 µM)
MIC ([2]; Staphylococcus aureus NRS 13): 2 µg/mL (≈ 1.38 µM)
MIC ([2]; Staphylococcus aureus NRS 18): 4 µg/mL (≈ 2.76 µM)
MIC ([2]; Staphylococcus aureus NRS 22): 4 µg/mL (≈ 2.76 µM)
MIC [2, 8]: 2 µg/mL (≈ 1.38 µM)
MIC ([2]; Staphylococcus aureus NRS 27): 2 µg/mL (≈ 1.38 µM)
MIC, QC range (S. aureus ATCC 29213 [3]): (0.5-2) μg/mL

Penicillin
MIC, CLSI QC range [4]: (0.25-1) μg/mL
MIC ([5]; S. pneumoniae MMX 880, Lev^R SXT^R CC^R Ery^R Pen^R): 2 µg/mL
MIC ([5]; S. pneumoniae MMX 937, Mem^R SXT^R CC^R Ery^R Pen^R): 4 µg/mL
MIC ([5]; S. pneumoniae MMX 3959, CC^R Ery^R): 0.12 µg/mL
MIC ([5]; S. pneumoniae MMX 5440, Mem^R SXT^R CC^R Ery^R Pen^R): 4 µg/mL
MIC ([5]; S. pneumoniae MMX 5445, Mem^R SXT^R CC^R Ery^R Pen^R): 4 µg/mL
MIC ([5]; S. pneumoniae MMX 6837 (ATCC 49619), QC): 0.25 µg/mL
MIC ([5]; S. pneumoniae MMX 8133, Mem^R SXT^R CC^R Ery^R Pen^R): 4 µg/mL
MIC ([6]; S. agalactiae MMX 3741, ERY^R CC^R): 0.03 µg/mL
MIC ([6]; S. agalactiae MMX 3743, ERY^R CC^R): 0.06 µg/mL
MIC ([6]; S. agalactiae MMX 4077, ERY^R CC^R): 0.06 µg/mL
MIC ([6]; S. agalactiae MMX 4079, ERY^R CC^R Pen^R MEM^R): 2 µg/mL
MIC ([6]; S. agalactiae MMX 4086, ERY^R CC^R): 0.06 µg/mL
MIC ([6]; S. pyogenes MMX 3068, Ery^R): ≤0.008 µg/mL
MIC ([6]; S. pyogenes MMX 3820, ERY^R CLI^R): ≤0.008 µg/mL
MIC ([6]; S. pyogenes MMX 3919, ERY^R): ≤0.008 µg/mL
MIC ([6]; S. pyogenes MMX 3929, ERY^R CC^R): ≤0.008 µg/mL
MIC ([6]; S. pyogenes MMX 5091, ERY^R CC^R): ≤0.008 µg/mL
